Assay results reported in US6737383B1, “Herbicidal oxadiazolidines” (priority 1999, dated 2004).

Columns and labels:
wheat = assay: Test B pre/postemergence wheat; type: in vivo, Triticum aestivum
Summary of the method: (§1)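 Test chemicals in a non-phytotoxic solvent mixture with surfactant were sprayed preemergence onto planted seeds and postemergence onto plants 2 to 18 cm tall (1- to 4-leaf stage). After twelve to sixteen days in a greenhouse, injury was visually rated against untreated controls from 0 (no effect) to 10 (complete control).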

rice = assay: Test B flood test rice; type: in vivo, Oryza sativa
Summary of the method: (§2)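 Each value is a visual injury score relative to controls, with 10 meaning complete control and 0 no effect. Evaluation took place twelve to sixteen days after the 2-leaf-stage plants were treated and kept in the greenhouse.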

velvetleaf = assay: Test B pre/postemergence velvetleaf; type: in vivo, Abutilon theophrasti
Summary of the method: as §1

cocklebur = assay: Test B pre/postemergence cocklebur; type: in vivo, Xanthium strumarium
Summary of the method: as §1

bamyardgrass = assay: Test B flood test barnyardgrass; type: in vivo, Echinochloa crus-galli
Summary of the method: as §2

sugar beet = assay: Test B pre/postemergence sugar beet; type: in vivo, Beta vulgaris
Summary of the method: as §1

crabgrass = assay: Test B pre/postemergence crabgrass; type: in vivo, Digitaria sanguinalis
Summary of the method: as §1

giant foxtail = assay: Test B pre/postemergence giant foxtail; type: in vivo, Setaria faberii
Summary of the method: as §1

wild oat = assay: Test B pre/postemergence wild oat; type: in vivo, Avena fatua
Summary of the method: as §1

duck salad = assay: Test B flood test duck salad; type: in vivo, Heteranthera limosa
Summary of the method: as §2

purple nutsedge = assay: Test B pre/postemergence purple nutsedge; type: in vivo, Cyperus rotundus
Summary of the method: as §1

pigweed = assay: Test B pre/postemergence pigweed; type: in vivo, Amaranthus retroflexus
Summary of the method: as §1

surinam grass = assay: Test B pre/postemergence surinam grass; type: in vivo, Brachiaria decumbens
Summary of the method: as §1

bedstraw = assay: Test B pre/postemergence bedstraw; type: in vivo, Galium aparine
Summary of the method: as §1

blackgrass = assay: Test B pre/postemergence blackgrass; type: in vivo, Alopecurus myosuroides
Summary of the method: as §1

morningglory = assay: Test B pre/postemergence morningglory; type: in vivo, Ipomoea hederacea
Summary of the method: as §1

[1] = Postemergence, Rate 62 g/ha, scale 0 to 10, 0 is no effect, 10 is complete control
[2] = Postemergence, Rate 250 g/ha, scale 0 to 10, 0 no effect, 10 complete control
[3] = Preemergence, Rate 62 g/ha, scale 0 to 10 (0 no effect, 10 complete control)
[4] = Preemergence, Rate 125 g/ha, scale 0 to 10 (0 no effect, 10 complete control)
[5] = Preemergence, Rate 250 g/ha, scale of 0 to 10 where 0 is no effect and 10 is complete control
[6] = Preemergence, Rate 500 g/ha, scale 0 (no effect) to 10 (complete control)
[7] = Rate 125 g/ha, Postemergence, scale 0 to 10, 0 no effect, 10 complete control
[8] = Rate 500 g/ha, Postemergence, scale 0 to 10, 0 no effect, 10 complete control
[9] = Rate 125 g/ha, Postemergence section (flood test species), scale 0 to 10, 0 no effect, 10 complete control
[10] = Rate 500 g/ha, listed under Postemergence (flood test species), scale 0 to 10, 0 no effect, 10 complete control
[11] = flood test, listed under Postemergence, Rate 250 g/ha, scale 0 to 10, 0 no effect, 10 complete control

SMILES: Cc1nn(C)c(C)c1-n1c(=O)on(C(=O)N(c2ccc(F)cc2F)C(C)C)c1=O [Compound 76]
- Wheat plant response rating (wheat; [1]): 0
- Wheat plant response rating (wheat; [2]): 0
- Wheat plant response rating (wheat; [3]): 0
- Plant response rating, Wheat (wheat; [4]): 0
- Plant response rating, Wheat (wheat; [5]): 0
- Wheat plant response rating (wheat; [6]): 2
- Wheat plant response rating (wheat; [7]): 0
- Wheat plant response rating (wheat; [8]): 3
- Rice plant response rating (rice; [1]): 0
- Rice plant response rating (rice; [9]): 0
- Rice plant response rating (rice; [10]): 3
- Rice plant response rating (rice; [11]): 3
- Velvetleaf plant response rating (velvetleaf; [1]): 0
- Velvetleaf plant response rating (velvetleaf; [2]): 3
- Velvetleaf plant response rating (velvetleaf; [3]): 0
- Plant response rating, Velvetleaf (velvetleaf; [4]): 0
- Plant response rating, Velvetleaf (velvetleaf; [5]): 0
- Velvetleaf plant response rating (velvetleaf; [6]): 0
- Velvetleaf plant response rating (velvetleaf; [7]): 0
- Velvetleaf plant response rating (velvetleaf; [8]): 4
- Cocklebur plant response rating (cocklebur; [1]): 0
- Cocklebur plant response rating (cocklebur; [2]): 3
- Cocklebur plant response rating (cocklebur; [3]): 0
- Plant response rating, Cocklebur (cocklebur; [4]): 0
- Plant response rating, Cocklebur (cocklebur; [5]): 0
- Cocklebur plant response rating (cocklebur; [6]): 0
- Cocklebur plant response rating (cocklebur; [7]): 0
- Cocklebur plant response rating (cocklebur; [8]): 4
- Barnyardgrass plant response rating (bamyardgrass; [1]): 0
- Barnyardgrass plant response rating (bamyardgrass; [9]): 0
- Barnyardgrass plant response rating (bamyardgrass; [10]): 0
- Barnyardgrass plant response rating (bamyardgrass; [11]): 0
- Sugarbeets plant response rating (sugar beet; [1]): 0
- Sugarbeets plant response rating (sugar beet; [2]): 2
- Sugarbeets plant response rating (sugar beet; [3]): 0
- Plant response rating, Sugarbeets (sugar beet; [4]): 0
- Plant response rating, Sugarbeets (sugar beet; [5]): 0
- Sugarbeets plant response rating (sugar beet; [6]): 0
- Sugarbeets plant response rating (sugar beet; [7]): 0
- Sugarbeets plant response rating (sugar beet; [8]): 3
- Crabgrass plant response rating (crabgrass; [1]): 2
- Crabgrass plant response rating (crabgrass; [2]): 8
- Crabgrass plant response rating (crabgrass; [3]): 3
- Plant response rating, Crabgrass (crabgrass; [4]): 4
- Plant response rating, Crabgrass (crabgrass; [5]): 8
- Crabgrass plant response rating (crabgrass; [6]): 8
- Crabgrass plant response rating (crabgrass; [7]): 4
- Crabgrass plant response rating (crabgrass; [8]): 9
- Giant foxtail plant response rating (giant foxtail; [1]): 3
- Giant foxtail plant response rating (giant foxtail; [2]): 7
- Giant foxtail plant response rating (giant foxtail; [3]): 4
- Plant response rating, Giant foxtail (giant foxtail; [4]): 9
- Plant response rating, Giant foxtail (giant foxtail; [5]): 9
- Giant foxtail plant response rating (giant foxtail; [6]): 9
- Giant foxtail plant response rating (giant foxtail; [7]): 4
- Giant foxtail plant response rating (giant foxtail; [8]): 9
- Wild oats plant response rating (wild oat; [1]): 0
- Wild oats plant response rating (wild oat; [2]): 2
- Wild oats plant response rating (wild oat; [3]): 0
- Plant response rating, Wild oats (wild oat; [4]): 0
- Plant response rating, Wild oats (wild oat; [5]): 4
- Wild oats plant response rating (wild oat; [6]): 4
- Wild oats plant response rating (wild oat; [7]): 0
- Wild oats plant response rating (wild oat; [8]): 5
- Ducksalad plant response rating (duck salad; [1]): 0
- Ducksalad plant response rating (duck salad; [9]): 0
- Ducksalad plant response rating (duck salad; [10]): 0
- Ducksalad plant response rating (duck salad; [11]): 0
- Nutsedge plant response rating (purple nutsedge; [1]): 0
- Nutsedge plant response rating (purple nutsedge; [2]): 0
- Nutsedge plant response rating (purple nutsedge; [3]): 0
- Plant response rating, Nutsedge (purple nutsedge; [4]): 0
- Plant response rating, Nutsedge (purple nutsedge; [5]): 0
- Nutsedge plant response rating (purple nutsedge; [6]): 0
- Nutsedge plant response rating (purple nutsedge; [7]): 0
- Nutsedge plant response rating (purple nutsedge; [8]): 0
- Redroot pigweed plant response rating (pigweed; [1]): 0
- Redroot pigweed plant response rating (pigweed; [2]): 0
- Redroot pigweed plant response rating (pigweed; [3]): 0
- Plant response rating, Redroot pigweed (pigweed; [4]): 0
- Plant response rating, Redroot pigweed (pigweed; [5]): 3
- Redroot pigweed plant response rating (pigweed; [6]): 8
- Redroot pigweed plant response rating (pigweed; [7]): 0
- Redroot pigweed plant response rating (pigweed; [8]): 4
- B. signalgrass plant response rating (surinam grass; [1]): 0
- B. signalgrass plant response rating (surinam grass; [2]): 5
- B. signalgrass plant response rating (surinam grass; [3]): 0
- Plant response rating, B. signalgrass (surinam grass; [4]): 0
- Plant response rating, B. signalgrass (surinam grass; [5]): 2
- B. signalgrass plant response rating (surinam grass; [6]): 8
- B. signalgrass plant response rating (surinam grass; [7]): 0
- B. signalgrass plant response rating (surinam grass; Rate 500 g/ha, Postemergence, scale of 0 to 10 where 0 is no effect and 10 is complete control): 9
- Bedstraw plant response rating (bedstraw; [1]): 0
- Bedstraw plant response rating (bedstraw; [2]): 2
- Bedstraw plant response rating (bedstraw; [3]): 0
- Plant response rating, Bedstraw (bedstraw; [4]): 0
- Plant response rating, Bedstraw (bedstraw; [5]): 0
- Bedstraw plant response rating (bedstraw; [6]): 0
- Bedstraw plant response rating (bedstraw; [7]): 0
- Bedstraw plant response rating (bedstraw; [8]): 4
- Blackgrass plant response rating (blackgrass; [1]): 0
- Blackgrass plant response rating (blackgrass; [2]): 6
- Blackgrass plant response rating (blackgrass; [3]): 0
- Plant response rating, Blackgrass (blackgrass; [4]): 2
- Plant response rating, Blackgrass (blackgrass; [5]): 4
- Blackgrass plant response rating (blackgrass; [6]): 8
- Blackgrass plant response rating (blackgrass; [7]): 2
- Blackgrass plant response rating (blackgrass; [8]): 8
- Morningglory plant response rating (morningglory; [1]): 0
- Morningglory plant response rating (morningglory; [2]): 4
- Morningglory plant response rating (morningglory; [3]): 0
- Plant response rating, Morningglory (morningglory; [4]): 0
- Plant response rating, Morningglory (morningglory; [5]): 0
- Morningglory plant response rating (morningglory; [6]): 0
- Morningglory plant response rating (morningglory; [7]): 2
- Morningglory plant response rating (morningglory; [8]): 7
